The values that follow come from article PMC10819171, “Development of Pleiotropic TrkB and 5-HT4 Receptor Ligands as Neuroprotective Agents” (Molecules, 2024).

Experiment [1] has as its target T1, 5-HT4 receptor (Homo sapiens, UniProt Q13639).
T1 construct: gene HTR4
Briefly: [3H]-GR113808 radioligand displacement at two concentrations. The format is binding. To be noted: read-out: 5-HT4R (1 × 10^-6 M).

Experiment [2] addresses T1, 5-HT4 receptor. Put plainly: [3H]-GR113808 radioligand displacement at two concentrations; partial agonist reference in cAMP assay. To be noted: read-out: 5-HT4R (1 × 10^-6 M). It is filed as binding.
For experiment [3], the target named is T2, HA-tagged human 5-HT4 receptor (Homo sapiens, UniProt Q13639).
T2 construct: gene HTR4; HA-tagged, transiently expressed in COS-7 cells
Briefly: cell-based. Details: cAMP production by HTRF in transiently transfected COS-7 cells, 10 min, with RO-20-1724. Conditions: COS-7; read-out: Top AMPc. The protocol:
COS-7 cells were purchased from ATCC (ATCC CRL-1651; LGC […], Molsheim, France). They were grown in Dulbecco’s modified Eagle medium (DMEM) supplemented with 10% dialyzed fetal calf serum (dFCS) and antibiotics. The cells were transiently transfected with the plasmid encoding HA-tagged human 5-HT4 receptor, then seeded in 96-wells plate (35,000 cells/well). Approximately 24 hrs after transfection, the cells were washed once with 200 µL of HBS (20 mM HEPES; 150 mM NaCl; 4.2 mM KCl; 0.9 mM CaCl2; 0.5 mM MgCl2; 0.1% glucose; 0.1% BSA) and, after HBS removal, exposed to the indicated concentrations of 5-HT4R ligands in the presence of 0.1 mM of the phosphodiesterase inhibitor RO-20-1724, at 37 °C in 100 µL of HBS. After 10 min, the cells were then lysed by the addition of the same volume of Triton-X100 (0.1%) during 30 min at 37 °C. Quantification of the cAMP production was performed by HTRF by using the cAMP—HTRF Gs Dynamic kit (Perkin Elmer, Codolet, France) according to the manufacturer’s instructions. 2.2.4.

The target of experiment [4] is T1, 5-HT4 receptor. Put plainly: [3H]-GR113808 radioligand competition, five-point inhibition curves; partial agonist in cAMP HTRF assay. It is filed as binding.

T1 sequence (Q13639 whole entry): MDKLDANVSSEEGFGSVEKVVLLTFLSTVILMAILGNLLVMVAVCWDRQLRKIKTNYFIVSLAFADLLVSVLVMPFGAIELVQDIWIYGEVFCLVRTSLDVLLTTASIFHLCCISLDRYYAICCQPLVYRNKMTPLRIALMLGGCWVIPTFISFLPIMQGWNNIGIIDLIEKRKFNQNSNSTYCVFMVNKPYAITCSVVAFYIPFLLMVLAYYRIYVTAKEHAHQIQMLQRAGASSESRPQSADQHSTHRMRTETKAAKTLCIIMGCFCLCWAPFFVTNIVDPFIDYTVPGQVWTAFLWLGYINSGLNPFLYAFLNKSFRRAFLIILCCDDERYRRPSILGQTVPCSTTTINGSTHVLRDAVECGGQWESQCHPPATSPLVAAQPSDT
T2 sequence (Q13639 whole entry): as above

For the molecule `COc1cc(N)c(Cl)cc1C(=O)CCC1CCN(CCOCCNC(=O)c2cc(C(=O)NCCO)cc(C(=O)NCCO)c2)CC1` [compound 19, N^1-(2-(2-(4-(3-(4-amino-5-chloro-2-methoxyphenyl)-3-oxopropyl)piperidin-1-yl)ethoxy)ethyl)-N^3,N^5-bis(2-hydroxyethyl)benzene-1,3,5-tricarboxamide], the inhibition at 1 µM on 5-HT4 receptor [1] was found to be 55%. On the same count and under the same terms, as for `COc1cc(N)c(Cl)cc1C(=O)CCC1CCN(CCCNC(=O)c2cc(C(=O)NCCO)cc(C(=O)NCCO)c2)CC1` [compound 13, N^1-(3-(4-(3-(4-amino-5-chloro-2-methoxyphenyl)-3-oxopropyl)piperidin-1-yl)propyl)-N^3,N^5-bis(2-hydroxyethyl)benzene-1,3,5-tricarboxamide], the figure is 82%. For `CCCCN1CCC(CCC(=O)c2cc(Cl)c(N)cc2OC)CC1` [RS67333], the inhibition at 1 µM on 5-HT4 receptor [2] stood at 100%. Besides, the Emax in experiment [3] turned out to be 68%. Regarding `COc1cc(N)c(Cl)cc1C(=O)CCC1CCN(CCNC(=O)c2cc(C(=O)NCCO)cc(C(=O)NCCO)c2)CC1` [compound 8, N^1-(2-{4-[3-(4-amino-5-chloro-2-methoxyphenyl)-3-oxopropyl]piperidin-1-yl}ethyl)-N^3,N^5-bis(2-hydroxyethyl)benzene-1,3,5-tricarboxamide], the Emax in experiment [3] came to 48%. For the same molecule, the Ki on 5-HT4 receptor [4] was 42.6 ± 4.1 nM.
